Test results as given in patent publication US20230233565A1, “A TREATMENT APPROACH INVOLVING KIF18A INHIBITION FOR CHROMOSOMALLY UNSTABLE TUMORS” (UNIVERSITY OF VERMONT, priority 2020, published 2023).

Columns and labels:
Type in all cases: cell-based
diploid MCF10A cells [1] = assay: Mitotic spindle morphology analysis (multipolar spindles, fixed cells); conditions: 10 nM paclitaxel, 24 h
Description: (§1) For experiments involving siRNA knockdown followed by drug treatment, the indicated concentrations of paclitaxel (Selleck Chemicals, Houston, Tex.), nocodazole (Selleck Chemicals, Houston, Tex.), and/or monastrol (Selleck Chemicals, Houston, Tex.) were added to cells 24 h after siRNA treatment. Three hours after drug addition, cells were either fixed and stained for immunofluorescence imaging or imaged live in a glass-bottom 24-well dish. To compare the effects of paclitaxel treatment to the effects of KIF18A KD in MDA-MB-231 and MCF10A cell lines, 10 nM of paclitaxel was added to cells 24 h before fixing and staining for immunofluorescence imaging.
(§2) To analyze mitotic spindle morphology, cells were fixed and stained for γ-tubulin, α-tubulin, and centrin-1. Enough optical slices spaced 200 nm apart were captured to visualize the entire 3-D structure of the spindle. Spindles with three or more visible microtubule-organizing centers were classified as multipolar. Cells were considered to have fragmented pericentriolar material (PCM) if they had supernumerary poles observed via γ-tubulin staining but lacked centrioles (centrin-1 puncta) at one or more of the poles. Intercentriolar distance, or the distance in microns between two centrioles in a pair, was measured from the center of one centriole to the center of the adjacent centriole.

MDA-MB-231 cells [2] = assay: Mitotic spindle morphology analysis (multipolar spindles, centrioles, fixed cells)
Description: as §1
Cells were grown on glass coverslips and fixed using either −20° C. methanol or 1% paraformaldehyde in −20° C. methanol. Cells were blocked with 20% goat serum in antibody diluting buffer (Abdil—TBS, 1% BSA, 0.1% Triton X-100, and 0.1% sodium azide) and incubated with the following primary antibodies: mouse anti-α-tubulin (DM1α) 1:500 (Millipore Sigma, Burlington Mass.) for one hour at room temperature (RT), human anti-centromere antibody (ACA) 1:250 (Antibodies Incorporated) overnight at 4° C., rabbit anti-γ-tubulin 1:500 (Abcam, Cambridge, Mass.) for one hour at RT, mouse anti-γ-tubulin 1:500 for one hour at RT (Abcam, Cambridge, Mass.), rabbit anti-KIF18A 1:100 (Bethyl Laboratories, Montgomery, Tex.) at 4° C. overnight, mouse anti-centrin-1 1:500 (Santa Cruz Biotechnology) for one hour at RT, and rabbit KIF18B 1:2000 (Shin et al., “Biased Brownian Motion as a Mechanism to Facilitate Nanometer-scale Exploration of the Microtubule Plus End by a Kinesin-8,” Proc National Acad Sci 112:E3826-35 (2015), which is hereby incorporated by reference in its entirety) for one hour at RT. Secondary antibodies conjugated to Alexa Fluor 488, 594, and 647 (Molecular Probes, Eugene, Oreg.) were used at concentrations of 1:15000 for one hour at RT. Coverslips were mounted onto glass slides using Prolong Gold anti-fade mounting medium with DAPI (Molecular Probes, Eugene, Oreg.).
as §2

diploid MCF10A cells [3] = assay: Mitotic index from fixed-cell images; conditions: 10 nM paclitaxel, 24 h
Description: as §1
(§3) To measure the length of mitosis, live cells were imaged every two minutes for 16-20 hours using differential interference contrast (DIC) microscopy. The time between nuclear envelope breakdown (NEB) and anaphase onset (AO) was used to indicate the time a cell spent in mitosis. Mitotic index was measured using fixed-cell images by counting the number of mitotic cells divided by the total number of cells. All mitotic index fields were taken with a 40×objective. An unpaired t-test was used to determine statistical significance between control and KIF18A KD conditions for each cell line.

MDA-MB-231 cells [4] = assay: Live imaging with siR-tubulin (spindle pole splitting); conditions: UMK57 in KIF18A KD cells
Description: Cells were plated in a glass-bottom 24-well dish and treated with the indicated siRNA approximately 24 hours before imaging. Six hours before imaging, the cell culture media was replaced with CO2-independent media containing […] SiR-tubulin (Cytoskeleton). For conditions involving UMK57 or DMSO, the specified drug was added to the CO2-independent media with siR-tubulin. Cells were imaged every 2 minutes for 16-20 hours using a 40×0.75 NA objective (Nikon).

MDA-MB-231 cells [5] = assay: Kinetic cell proliferation assay, siRNA plus UMK57 or DMSO
Description: HT29, LoVo, SW480, LS1034, HCC1806, HCT116, MCF10A, MDA-MB-231, and MDA-MB-468 cells were purchased from ATCC (Manassas, Va.). All cell lines were validated by STR DNA fingerprinting using the Promega GenePrint® 10 System according to manufacturer's instructions (Promega #B9510). HT29, LoVo, SW480, MDA-MB-231, and MDA-MB-468 cells were cultured in DMEM/F-12 medium (Gibco) supplemented with 10% FBS (Gibco) and 1% penicillin/streptomycin (pen/strep). LS1034 and HCC1806 cells were cultured in RPMI 1640 medium (Gibco) with 10% FBS and 1% pen/strep. […]
Cells were imaged in either a 96- or 24-well dish every two or four hours for up to five days using the Cytation 5 Cell Imaging Multi-Mode Reader (Biotek, Winooski, Vt.) driven by Gen5 software (Biotek, Winooski, Vt.). […] Between imaging reads, cells were incubated at 37° C. with 5% CO2 using the Biospa 8 Automated Incubator (Biotek, Winooski, Vt.). […] To determine rates of cell proliferation, the fold change in cells/mm^2 between the first and last reads of each well were calculated and normalized to the control for each experiment. […] For cytotoxicity assays, CellTox™ Green Dye (Promega, Madison, Wis.) was added to cell media prior to imaging, and the number of cells/mm^2 was recorded for both GFP and brightfield channels. […]

MDA-MB-231 cells [6] = assay: Mitotic index from fixed-cell images; conditions: 500 nM UMK57 in KIF18A-depleted cells, versus DMSO
Description: as §1, §3

SMILES: CC(=O)O[C@H]1C(=O)[C@@]2(C)[C@H]([C@H](OC(=O)c3ccccc3)[C@]3(O)C[C@H](OC(=O)[C@H](O)[C@@H](NC(=O)c4ccccc4)c4ccccc4)C(C)=C1C3(C)C)[C@]1(OC(C)=O)CO[C@@H]1C[C@@H]2O [paclitaxel]
- multipolar spindles (diploid MCF10A cells [1]): increased
- multipolar spindles in KIF18A KD cells (MDA-MB-231 cells [2]; 20 nM paclitaxel for 3 h, versus DMSO): significantly fewer multipolar spindles
- mitotic defects (mitotic index, multipolar spindles) (MDA-MB-231 cells [2]; MDA-MB-231, KIF18A KD versus 10 nM paclitaxel (24 h)): produced similar mitotic defects
- mitotic index (diploid MCF10A cells [3]): increased the mitotic index

SMILES: COC(=O)Nc1nc2ccc(C(=O)c3cccs3)cc2[nH]1 [nocodazole]
- multipolar spindles in KIF18A KD cells (MDA-MB-231 cells [2]; 5 μM nocodazole for 3 h, versus DMSO): significantly fewer multipolar spindles

SMILES: Cc1ccc(-c2csc3ncnc(N4CCCC4)c23)cc1 [UMK57]
- spindle pole splitting (MDA-MB-231 cells [4]): increased spindle pole splitting
- proliferation (MDA-MB-231 cells [5]; 500 nM UMK57 in KIF18A-depleted cells, versus DMSO): decreased proliferation
- proliferation (MDA-MB-231 cells [5]; 500 nM UMK57 in control siRNA-treated cells): no impact on the proliferation
- percentage of multipolar spindles (MDA-MB-231 cells [2]; 500 nM UMK57 in KIF18A KD cells, versus DMSO): small but significant increase in multipolar spindles
- chromosome alignment defects in bipolar spindles (MDA-MB-231 cells [2]; UMK57 in KIF18A KD cells): without an obvious change in chromosome alignment defects
- mitotic index (MDA-MB-231 cells [6]): increased
